Assay results from ChEMBL document CHEMBL5143655, “Synthesis and biological evaluation of 1,2,4-triazole derivatives as potential Nrf2 activators for the treatment of cerebral ischemic injury” (Eur J Med Chem, 2022).
The source made the active and inactive calls. The calls are words filed in the database; no cut-off is given here.

Experiments:
[1] = MRT in Sprague-Dawley rat at 5 mg/kg, ip measured upto 24 hrs by LC-MS/MS analysis; assay type: ADME, organism-based; details: in vivo
[2] = molecular target: T1, Nuclear factor erythroid 2-related factor 2 (Rattus norvegicus) (UniProt O54968); assay: Activation of Nrf2 pathway in rat PC-12 cells assessed as decrease in Nrf2 accumulation in cytoplasm at 0.5 to 10 uM measured after 3 hrs by Western blot analysis; assay type: cell-based; details: filed as activator, dose 0.5-10 µM
T1 sequence (whole entry): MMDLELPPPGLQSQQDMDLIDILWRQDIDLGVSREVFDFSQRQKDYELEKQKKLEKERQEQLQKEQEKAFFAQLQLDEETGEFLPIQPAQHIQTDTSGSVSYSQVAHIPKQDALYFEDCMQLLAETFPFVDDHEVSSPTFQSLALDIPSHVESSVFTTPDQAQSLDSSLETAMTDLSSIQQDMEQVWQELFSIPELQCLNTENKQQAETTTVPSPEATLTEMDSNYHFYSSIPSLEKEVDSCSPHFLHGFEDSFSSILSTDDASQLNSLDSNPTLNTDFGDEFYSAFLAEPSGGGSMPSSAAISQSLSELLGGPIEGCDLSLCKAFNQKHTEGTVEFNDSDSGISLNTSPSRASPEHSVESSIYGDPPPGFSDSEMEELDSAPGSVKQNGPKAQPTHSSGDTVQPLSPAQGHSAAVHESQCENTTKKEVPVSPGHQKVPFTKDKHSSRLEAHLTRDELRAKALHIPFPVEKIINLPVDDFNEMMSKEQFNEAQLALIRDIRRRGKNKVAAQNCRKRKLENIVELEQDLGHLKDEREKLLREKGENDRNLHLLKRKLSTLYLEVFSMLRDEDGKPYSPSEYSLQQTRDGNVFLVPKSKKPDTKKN

[3] = Metabolic stability in human plasma assessed as parent compound remaining at 200 uM measured after 60 min by LC-MS/MS analysis relative to control; assay type: ADME, cell-free; details: read-out: Stability
[4] = Bioavailability in Sprague-Dawley rat at 5 mg/kg, ip measured upto 24 hrs by LC-MS/MS analysis; assay type: ADME, organism-based; details: in vivo
[5] = molecular target: T1, Nuclear factor erythroid 2-related factor 2 (Rattus norvegicus); assay: Activation of Nrf2 pathway in rat PC-12 cells assessed as increase in NQO1 level at 2.5 to 10 uM measured after 3 hrs by Western blot analysis; assay type: cell-based; details: filed as activator, dose 2.5-10 µM
[6] = system: Rattus norvegicus; assay: Neuroprotective activity in Sprague-Dawley rat model of middle cerebral artery occlusion-induced ischemia-reperfusion injury assessed as attenuation of behavioral deficit at 10 mg/kg, ip preincubated for 1 hrs followed by MCAO operation and further incubated with compound for 4 hrs after reperfusion; assay type: functional; details: time 5 hrs
[7] = Clearence in Sprague-Dawley rat at 5 mg/kg, ip measured upto 24 hrs by LC-MS/MS analysis; assay type: ADME, organism-based; details: in vivo
[8] = system: Rattus norvegicus; assay: Neuroprotective activity in Sprague-Dawley rat model of middle cerebral artery occlusion-induced ischemia-reperfusion injury assessed as attenuation of behavioral deficit at 30 mg/kg, ip preincubated for 1 hrs followed by MCAO operation and further incubated with compound for 4 hrs after reperfusion; assay type: functional; details: time 5 hrs
[9] = MRT in Sprague-Dawley rat at 5 mg/kg, iv measured upto 24 hrs by LC-MS/MS analysis; assay type: ADME, organism-based; details: in vivo
[10] = Plasma protein binding in human plasma at 10 uM incubated for 6 hrs by LC-MS/MS based equilibrium dialysis method; assay type: ADME, cell-free; details: read-out: PPB (converted)
[11] = AUC (0 to infinity) in Sprague-Dawley rat at 5 mg/kg, iv measured upto 24 hrs by LC-MS/MS analysis; assay type: ADME, organism-based; design: dose 5 mg/kg, time < 24 hrs, route iv; details: in vivo
[12] = system: Rattus norvegicus; assay: Neuroprotective activity in Sprague-Dawley rat model of middle cerebral artery occlusion-induced ischemia reperfusion injury assessed as decrease in serum MDA level at 3 to 30 mg/kg, ip preincubated for 1 hrs followed by MCAO operation and further incubated with compound for 4 hrs after reperfusion; assay type: functional, organism-based; details: dose 3-30 mg/kg, time 5.0 hrs
[13] = Plasma protein binding in Sprague-Dawley rat plasma at 10 uM incubated for 6 hrs by LC-MS/MS based equilibrium dialysis method; assay type: ADME, cell-free; details: read-out: PPB (converted)
[14] = Metabolic stability in human plasma assessed as parent compound remaining at 200 uM measured after 15 min by LC-MS/MS analysis relative to control; assay type: ADME, cell-free; details: read-out: Stability
[15] = Acute toxicity in ip dosed BALB/c mouse assessed as lethal dose measured after 7 days; assay type: organism-based; details: in vivo, time 7 day
[16] = molecular target: T1, Nuclear factor erythroid 2-related factor 2 (Rattus norvegicus); assay: Activation of Nrf2 pathway in rat PC-12 cells assessed as Nrf2 accumulation in nucleus measured after 3 hrs by Western blot analysis; assay type: cell-based; details: filed as activator, dose 2.5-10 µM, DDE = dose-dependent effect
[17] = Acute toxicity in BALB/c mouse assessed as survival rate at 175 mg/kg, ip measured after 7 days; assay type: organism-based; details: in vivo, 168 h, time 7 day
[18] = system: PC-12; assay: Neuroprotective activity against SNP-induced apoptotic rat PC-12 cells assessed as reduction in nuclear shrinkage by measuring the decrease in blue fluorescence signal at 10 uM preincubated for 2 hrs followed by SNP stimulation for 24 hrs by Hoechst 33258 staining based fluorescence microscopic analysis; assay type: functional, cell-based
[19] = Acute toxicity in BALB/c mouse assessed as survival rate at 550 mg/kg, ip measured after 7 days; assay type: organism-based; details: in vivo, 168 h, time 7 day

Cc1cc(C)cc(-n2nc(-c3ccc(C(F)(F)F)cc3O)nc2-c2ccccc2O)c1
MRT [1]: 16.5 h | Activity [2]: Active | remaining at 1 h, 200 µM [3]: 90.7% | bioavailability [4]: 28.8% | Activity [5]: Active | Activity [6]: 1.6 | CL [7]: 0.0017 (mg/kg)/(ng/ml)/hr | Activity [8]: 1.5 | MRT [9]: 2.84 h | fraction unbound at 6 h, 10 µM [10]: 0.0006 | AUC(0-inf) [11]: 10200 ng·h/mL | Activity [12]: Active | fraction unbound at 6 h, 10 µM [13]: 0.0008 | remaining at 0.25 h, 200 µM [14]: 95.8% | LD50 at 168 h [15]: 789 mg/kg | Activity [16]: Dde | Activity [17]: Non-Toxic | Activity [18]: Active | Activity [19]: Non-Toxic
